We go through two compounds from patent US10983109B2, “Compositions and methods for treating B-lymphoid malignancies” (The Children's Hospital of Philadelphia, priority 2013, dated 2021).

Holding throughout (type): cell-based, mouse
The subject of one experiment is protein synthesis. The experiment can be described thus: Cycloheximide experiment in Pax5- and CD19-reconstituted Myc5 cells. The following applies: 1 μg/ml, over 30 minutes. The source says: All figures except FIGS. 3E and 3H represent immunoblotting analyses of proteins indicated on the left. Actin was used as a loading control. In bracketed panels of FIG. 3A, whole cell lysates from Myc5 cells expressing HA-tagged wild-type or mutant (“mut”) ITAM were subjected to immune-precipitation with an α-HA antibody followed by immunoblotting with antibody against total Lyn, Tyr396-phospho-Lyn, or another α-HA antibody. In the bottom panels, lysates from the same cells were immunoblotted with antibodies against c-Myc, and β-actin. […] Mean fluorescent intensities (MFI) are shown in each plot. […] CHX was added at the concentration of 1 μg/ml for 7.5-30 minutes. In the bottom panels Myc-specific bands were quantitated by densitometry, normalized to actin, and plotted against time after treatment. Note that different exposures are shown for parental and Pax5/CD19-transduced cells to allow accurate band quantitation. […]
Myc5 stably transduced with either Pax5 or CD19 retroviral construct were seeded at 1×10^6/ml in 50 ml conical tubes received cycloheximide (Sigma) treatment at 1 μg/ml, while stimulation with 95% ethanol (sigma) served as control. […] Protein samples were resolved on 10% SDS-PAGE for Western blot analysis. c-Myc protein levels were quantified by densitometry using ImageJ 1.43 (National Institutes of Health) with quantitated values normalized to β-actin.

Experiment [1] has as its system Src family tyrosine kinases (SFTKs). The experiment can be described thus: Western blotting with phospho-specific antibodies of MYC5 cells expressing WT or MUT CD19 treated with SU6656. The method, then:
(§1) FIG. 11A provides growth rates of MYC5 tumors expressing either wild type or mutant CD19. FIG. 11B provides immunoblotts of protein lysates obtained from individual tumors in FIG. 11A on day 23. […] Phosphorylation was assessed using Western blotting with phospho-specific antibodies. […] GFP-only-expressing MYC5 cells were used as a control. Cell proliferation was measured using the WST assay at indicated time points.

The subject of another experiment is MYC5/CD19 cells. The experiment can be described thus: WST cell proliferation assay of MYC5/CD19 cells. The following applies: CD19mut/PI3K-disabled cells; GFP-only MYC5 cells as control. How it is done:
as §1
Proliferation of Myc5-M5 CD19 transduced cells in vitro were determined using cell proliferation reagent WST-1 (Roche Molecular Biochemicals). Cells were seeded at 1×10^3/well in 100 μl of culture medium were incubated for a total of 72 hours. Proliferation status was determined every 24 hours by incubating with 10 μl of the cell proliferation reagent WST-1 for 4 hours. The absorbance of the treated samples in triplicates were measured against a blank control was measured at 440 nM using a Synergy™ 2 microplate reader (BioTek Instruments).

Consider `C[C@@H]1C[C@@H]([C@H](O)CC2CC(=O)NC(=O)C2)C(=O)[C@@H](C)C1` [CHX, cycloheximide], for which, in the experiment with protein synthesis, the Myc levels result was “clearly down-regulated” and the “retrovirally transduced Pax5 or CD19 protein expression” value is recorded as “no observable effects”.
With `CN(C)S(=O)(=O)c1ccc2c(c1)/C(=C/c1cc3c([nH]1)CCCC3)C(=O)N2` [SU6656], the phospho-JNK levels result in experiment [1] is “reduced”. Further, the “cell proliferation (WST assay)” value in the experiment on MYC5/CD19 cells is given as “selectively suppressed proliferation”.
